In general, IC50 refers to the midpoint of a concentration-inhibition curve.

Where “and” joins values, the source holds several entries; their conditions need not be identical. Identical values can stand only once.

Data on six molecules can be found in PMC11840788, “3,3′-Diindolylmethane (DIM): A Molecular Scaffold for Inhibition of WWP1 and WWP2, Members of the NEDD4 Family HECT E3 Ligases” (ACS Omega, 2025).

Assay [1] addresses T1, WWP2 (GST-tagged WWP2-FL) (Homo sapiens, UniProt O00308).
T1 construct: Full- length WWP2 (WWP2-FL); made in house; host or cells: E. coli BL21-CodonPlus RP (plasmid pGEX2T-WWP2-FL, Dr Andrew Chantry's Lab)
Nature of the assay: in vitro autoubiquitination assay (single shot and dose dependency), WWP2. It is filed as biochemical. As to conditions: for inhibition of WWP2 (in words): autoubiquitination assay; for IC50: nonlinear regression of RA against log concentration, 1 mM to 10 nM, 1% DMSO; for WWP2 RA (%) relative activity: single shot, compound at 1 mM (1% DMSO), standardized to 0 and 100% controls. The method, then:
(§1) A single shot in vitro autoubiquitination assay was performed for I3C, DIM and each of the derivatives against WWP1 and WWP2 using a compound concentration of 1 mM (1% DMSO) (SI Figure S3). […] These active compounds were then subjected to a detailed dose dependency analysis leading to IC50 values. This strategy has previously been employed to screen other WWP1/WWP2 small molecule inhibitors as well as used to assess I3C inhibition toward NEDD4-1.[29],[32] In this way, compounds displaying a relative activity (RA) of less than 50% in the single shot assay were further screened for dose-dependency using a logarithmic concentration range from 10 nM to 1 mM (1% DMSO) (SI Figure S4). […] These were confirmed by counter assays to remove compounds possibly interacting with other enzymes in the assay or interfering with the assay directly (SI Table S1).
(§2) Cell lysate containing His-tagged WWP1-L34H or GST-tagged WWP2-FL proteins were incubated on either 96-well Clear Pierce glutathione or nickel-coated plates for 1 h. Reaction mixtures of either 3 ng/well GST-Uba1 and 15 ng/well UbcH7 or 10 ng/well His-Uba1 and 150 ng/well His-UbcH7 were incubated together in 25 mM Tris pH 8.0, 100 mM NaCl, 4 mM MgCl2 containing 60 ng/well FLAG-ubiquitin and 1.25 mM ATP for 40 min. A prior 1% BSA plate blocking step is required for nickel-coated plates. After plate washing, 2 μL of the compound was added at the desired concentration (1% DMSO) followed by 18 μL of the reaction mixture. This was then incubated for 2 h with 0 and 100% controls before 100 μL of anti-FLAG M2-Peroxidase HRP (1:10,000 PBST) was added to each well and incubated for 1 h. Finally, 100 μL of 1 × TMB substrate solution (Invitrogen) was added to each well and incubated for up to 10 min until sufficient blue color change was observed. To stop the reaction, 100 μL of 1 M HCl was added. For the counter assay, 3 ng/well GST-Uba1 and 200 ng/well UbcH7 were incubated with the other reaction mixture components for 1 h before incubating onto plates for a further 1 h. All other steps were followed. The plates were washed three times with PBST (and 15 mM Imidazole) between each step. Quantification was measured by absorbance read at 450 nm. All assay optimizations were as previously reported.[32] IC50 nonlinear regression curves were calculated in GraphPad v10.2 (Prism). […]
(§3) Auto-ubiquitination Assay
(§4) Cell lysate containing His-tagged WWP1-L34H or GST-tagged WWP2-FL proteins were incubated on either 96-well Clear Pierce glutathione 2 or nickel-coated plates for 1 hour. Reaction mixtures of either 3 ng/well GST-Uba1 and 15 ng/well UbcH7 or 10 ng/well His-Uba1 and 150 ng/well His-UbcH7 were incubated together in 25 mM Tris pH 8.0, 100 mM NaCl, 4 mM MgCl2 containing 60 ng/well FLAG-ubiquitin and 1.25 mM ATP for 40 minutes. A prior 1 % BSA plate blocking step is required for nickel-coated plates. After plate washing, 2 μL of the compound was added at the desired concentration (1 % DMSO) followed by 18 μL of the reaction mixture. This was then incubated for 2 hours with 0% and 100% controls before 100 μL of anti-FLAG M2-Peroxidase HRP (1: 10,000 PBST) was added to each well and incubated for 1 hour.
(§5) Finally, 100 μL of 1 × TMB substrate solution (Invitrogen) was added to each well and […]
(§6) incubated for up to 10 minutes until sufficient blue colour change was observed. To stop the reaction, 100 μL of 1 M HCl was added. For the counter assay, 3 ng/well GST-Uba1 and 200 ng/well UbcH7 were incubated with the other reaction mixture components for 1 hour before incubating onto plates for a further 1 hour. All other steps were followed.
(§7) The plates were washed three times with PBST (and 15 mM Imidazole) between each step. Quantification was measured by absorbance read at 450 nm. All assay optimisations have been previously reported by Watt and colleagues3.
(§8) Relative activity (RA) was determined by comparing the autoubiquitination of the WWP ligases in the presence of each compound, i.e TMB absorbance (450 nm), to the […]

In another assay the target is T2, UbcH7 (Homo sapiens, UniProt P68036).
T2 construct: GST (N, cleaved yes); made in house; host or cells: E. coli BL21 (DE3) (pGEX4T-1-UbcH7a and pGEX4T-1-hUba1, gifts of Dr Arthur L Haas's Lab)
T2 sequence (P68036 whole entry): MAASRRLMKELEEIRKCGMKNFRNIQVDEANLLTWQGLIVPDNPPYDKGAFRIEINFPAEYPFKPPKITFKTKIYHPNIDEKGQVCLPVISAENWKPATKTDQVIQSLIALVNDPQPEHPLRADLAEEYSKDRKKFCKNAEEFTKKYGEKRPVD
As to the kind of experiment: counter auto-ubiquitination screen. Format: biochemical. As to conditions: counter assay, GST-Uba1 and UbcH7 without E3. The procedure:
as §1
Cell lysate containing His-tagged WWP1-L34H or GST-tagged WWP2-FL proteins were incubated on either 96-well Clear Pierce glutathione or nickel-coated plates for 1 h. Reaction mixtures of either 3 ng/well GST-Uba1 and 15 ng/well UbcH7 or 10 ng/well His-Uba1 and 150 ng/well His-UbcH7 were incubated together in 25 mM Tris pH 8.0, 100 mM NaCl, 4 mM MgCl2 containing 60 ng/well FLAG-ubiquitin and 1.25 mM ATP for 40 min. A prior 1% BSA plate blocking step is required for nickel-coated plates. […] Quantification was measured by absorbance read at 450 nm. […] IC50 nonlinear regression curves were calculated in GraphPad v10.2 (Prism). […]
The plates were washed three times with PBST (and 15 mM Imidazole) between each step. Quantification was measured by absorbance read at 450 nm. […]
Relative activity (RA) was determined by comparing the autoubiquitination of the WWP ligases in the presence of each compound, i.e TMB absorbance (450 nm), to the 100 % controls (1 % DMSO only), further normalising against background absorbance using 0 % controls (no E3 loaded). […]
IC50 non-linear regression curves were calculated in GraphPad v10.2 (Prism). […]

In assay [2] the target is T3, WWP1 (His-tagged WWP1-L34H) (Homo sapiens, UniProt Q9H0M0).
T3 construct: WWP1- 2,3-linker-WW3-WW4-HECT (WWP1-L34H); made in house; host or cells: E. coli BL21-CodonPlus RP (plasmid pET32a-WWP1-L34H, gift of Dr Wenyu Wen)
T3 sequence (Q9H0M0 415-922, stated change not applied): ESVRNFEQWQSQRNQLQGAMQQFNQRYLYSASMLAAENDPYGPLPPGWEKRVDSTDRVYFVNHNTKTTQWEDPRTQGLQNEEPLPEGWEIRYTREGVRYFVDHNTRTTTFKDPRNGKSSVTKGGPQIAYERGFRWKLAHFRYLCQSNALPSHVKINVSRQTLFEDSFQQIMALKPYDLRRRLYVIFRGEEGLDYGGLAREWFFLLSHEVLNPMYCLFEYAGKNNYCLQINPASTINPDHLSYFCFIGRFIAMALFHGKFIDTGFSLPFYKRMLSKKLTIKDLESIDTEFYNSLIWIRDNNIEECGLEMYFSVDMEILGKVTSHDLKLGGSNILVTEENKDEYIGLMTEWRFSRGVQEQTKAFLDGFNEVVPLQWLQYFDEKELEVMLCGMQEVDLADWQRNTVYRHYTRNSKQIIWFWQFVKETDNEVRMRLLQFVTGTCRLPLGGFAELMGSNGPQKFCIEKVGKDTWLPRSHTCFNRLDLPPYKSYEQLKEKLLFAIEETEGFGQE
Nature of the assay: in vitro autoubiquitination assay (single shot and dose dependency), WWP1. Format: biochemical. The following applies: for inhibition of WWP1 (in words): autoubiquitination assay; for IC50: nonlinear regression of RA against log concentration, 1 mM to 10 nM, 1% DMSO; for WWP1 RA (%) relative activity: single shot, compound at 1 mM (1% DMSO), standardized to 0 and 100% controls. The method, then: as §1, §2, §3, §4, §5, §6, §7, §8

The next assay deals with WWP1 (Homo sapiens, UniProt Q9H0M0). The arrangement: method as in PMID 31097636, doi:10.1016/j.phytol.2023.01.002. As to conditions: cited from earlier work.
Chain of WWP1 (Q9H0M0 546-922 limits assumed): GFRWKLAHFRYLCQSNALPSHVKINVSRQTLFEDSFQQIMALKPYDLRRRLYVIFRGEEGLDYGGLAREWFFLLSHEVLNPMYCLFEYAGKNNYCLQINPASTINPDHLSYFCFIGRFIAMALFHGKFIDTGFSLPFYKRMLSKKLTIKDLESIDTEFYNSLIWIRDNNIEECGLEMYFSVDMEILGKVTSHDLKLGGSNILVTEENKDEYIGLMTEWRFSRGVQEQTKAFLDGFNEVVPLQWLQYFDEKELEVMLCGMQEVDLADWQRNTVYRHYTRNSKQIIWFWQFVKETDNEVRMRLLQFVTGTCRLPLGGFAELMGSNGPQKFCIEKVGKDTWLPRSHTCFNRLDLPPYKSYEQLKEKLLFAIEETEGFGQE
The subject of another assay is NEDD4-1. The arrangement: method as in PMID 27979631. The following applies: cited from earlier work.
Details of assay [3]: method as in PMID 17699787. As to conditions: cited from earlier work.

T1 sequence (O00308 whole entry): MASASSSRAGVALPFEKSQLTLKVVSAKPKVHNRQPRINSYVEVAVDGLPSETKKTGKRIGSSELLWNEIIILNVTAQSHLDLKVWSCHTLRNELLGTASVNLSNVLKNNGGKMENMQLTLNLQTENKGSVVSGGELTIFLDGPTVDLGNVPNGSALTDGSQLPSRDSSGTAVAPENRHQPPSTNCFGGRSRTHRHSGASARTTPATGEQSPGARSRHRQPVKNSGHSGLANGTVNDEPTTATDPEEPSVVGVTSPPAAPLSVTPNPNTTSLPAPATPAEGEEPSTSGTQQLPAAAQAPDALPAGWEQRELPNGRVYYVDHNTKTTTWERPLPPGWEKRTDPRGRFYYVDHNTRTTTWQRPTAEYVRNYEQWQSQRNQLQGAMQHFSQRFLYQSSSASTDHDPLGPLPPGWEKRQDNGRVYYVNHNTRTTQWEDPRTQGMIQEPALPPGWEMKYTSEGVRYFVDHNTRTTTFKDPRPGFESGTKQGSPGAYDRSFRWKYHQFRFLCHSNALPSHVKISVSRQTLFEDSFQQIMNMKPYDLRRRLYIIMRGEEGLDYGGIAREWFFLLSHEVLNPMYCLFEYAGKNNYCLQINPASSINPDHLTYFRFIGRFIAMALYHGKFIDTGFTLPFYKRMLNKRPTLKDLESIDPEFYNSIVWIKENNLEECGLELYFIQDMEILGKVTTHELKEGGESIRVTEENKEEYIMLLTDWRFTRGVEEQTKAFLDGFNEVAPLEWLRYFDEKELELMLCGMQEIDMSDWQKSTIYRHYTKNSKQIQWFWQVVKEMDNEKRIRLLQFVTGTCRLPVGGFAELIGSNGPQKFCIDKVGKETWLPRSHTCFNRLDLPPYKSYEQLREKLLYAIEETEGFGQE

On to `Cc1ccc(S(=O)(=O)n2cc(CO)c3ccccc32)cc1` [Compound 15, N-(4-methylbenzenesulfonyl)indole-3-carbinol], for which, in assay [1], the “inhibition of WWP2 (in words)” value is “displayed inhibition”, the IC50 came to 224 µM and the “WWP2 RA (%) relative activity” value is reported as 39.2%. Besides, the “UbcH7 Activity (%)” value at UbcH7 amounted to 86.3 ± 1.8%. In assay [2], the “inhibition of WWP1 (in words)” value is on record as “displayed inhibition”, it took 218 µM to reach half-maximal inhibition (IC50) and the “WWP1 RA (%) relative activity” value is 11.4%.

Regarding `c1ccc2c(Cc3c[nH]c4ccccc34)c[nH]c2c1` [DIM, 3,3′-diindolylmethane], the “WWP2 RA (%) relative activity” value in assay [1] is 62.2 ± 6.1% and 62.2%. For the same molecule, at UbcH7, the “UbcH7 Activity (%)” value is on record as 83.3 ± 2.0%. In addition, in assay [2], the “inhibition of WWP1 (in words)” value is listed as “displayed inhibition”, the IC50 turned out to be 111 µM and the “WWP1 RA (%) relative activity” value worked out at 17.2%.

As for `CCc1ccc(C=CC(=O)Nc2ccc(C(C)=O)cc2)o1` [Heclin], on WWP1, the IC50 is 6.9 µM.

As for `OCc1cn(Cc2ccccc2)c2ccccc12` [Compound 13, N-benzylindole-3-carbinol], in assay [1], the “inhibition of WWP2 (in words)” value is “no evidence of inhibition” and the “WWP2 RA (%) relative activity” value was found to be 97.6%. Besides, in the assay on NEDD4-1, the IC50 was 12.3 µM. For the same molecule, in assay [2], the “inhibition of WWP1 (in words)” value was “no evidence of inhibition” and the “WWP1 RA (%) relative activity” value was 105.9%.

For `O=[N+]([O-])c1cc(S(=O)(=O)n2cc(CO)c3ccccc32)ccc1Cl` [OSU-A9], the “increase in antiproliferative properties relative to I3C” value in assay [3] is 100 fold.

For `O=S(=O)(c1ccc(C(F)(F)F)cc1)n1cc(CO)c2ccccc21` [Compound 16, N-(4-trifluoromethylbenzenesulfonyl)indole-3-carbinol], in assay [1], the “inhibition of WWP2 (in words)” value is given as “displayed inhibition”, half-maximal inhibition (IC50) required 642 µM and the “WWP2 RA (%) relative activity” value is given as 30.0%. The “UbcH7 Activity (%)” value on UbcH7 was 79.7 ± 1.5%. In assay [2], the “inhibition of WWP1 (in words)” value was “displayed inhibition”, the IC50 was 799 µM and the “WWP1 RA (%) relative activity” value was 22.5%.
